In this experiment the target is oxytocin receptor. Description: [³H]Oxytocin binding assay, crude membrane preparation of rat uterus. The settings on record: concentration of test compound to inhibit [³H]oxytocin binding by 50%; rat uterus membranes; read-out: IC₅₀ [³H]OT (uterus). The source says: Oxytocin receptors have been identified in mammalian uterine tissue through the use of in vitro radioligand binding assays. These receptor binding sites mediate the contractile response of the uterine myometrium to oxytocin. […] The assay uses a crude membrane preparation of rat uterus as the source of oxytocin receptors. […]

We go through two molecules from EP0256847B1, “Oxytocin and vasopressin antagonists” (Merck & Co., Inc., priority 1986, dated 1988).

*1 amine or outer side, *2 acyl side, *3 side chain or, on linkers, in order; H or OH if unused. Where a SMILES comes first, the peptide text is derived from it. [ ]: non-standard residue; d: D form. ξ: configuration not given here. X2 = O=C([C@@H]1CCCNN1[*:1])[*:2]; ξN(OH)Ile(3ξ) = CCC(C)C(NO)C(=O)O; X1 = O=C([C@H]1CCCNN1[*:1])[*:2]; dNMeF = CN[C@H](Cc1ccccc1)C(=O)O; NMeF = CN[CH](Cc1ccccc1)C(=O)O; X3 = O=C(C1CCCNN1[*:1])[*:2]

Take `CC[C@H](C)[C@@H]1NC(=O)[C@@H](Cc2ccccc2)NC(=O)[C@@H]2CCCN2C(=O)[C@@H](Cc2ccccc2)N(C)C(=O)[C@@H]2CCCNN2C(=O)[C@H]2CCCNN2C1=O` [Example 9] (cyclo([X1][X2][dNMeF]P[dF]I)): the IC50 was found to be 170 ± 15 nM.

As for `CCC(C)C1C(=O)N2NCCCC2C(=O)N2NCCCC2C(=O)N(C)C(Cc2ccccc2)C(=O)N2CCCC2C(=O)NC(Cc2ccccc2)C(=O)N1O` (centres unmarked) [Formula I] (cyclo([ξN(OH)Ile(3ξ)][X3][X3][NMeF]PF); configuration not given here), the IC50 was 370 ± 70 nM.
